Laboratory results from patent US20070225242A1, “Method and composition for treating and preventing tumor metastasis in vivo” (The Board of Trustees of the Leland Stanford Junior …, priority 2005, published 2007).

Tests used:
LOX = LOX fluorescent activity assay, in vivo (plasma of treated tumor-bearing mice); settings: BAPN-treated and antibody-treated mice, terminal bleeds
Source text: LOX activity may be measured in a number of ways, using a soluble elastin or soluble collagen with labeled lysine as a substrate. Details of an activity assay are given in Royce et al., “Copper metabolism in mottled mouse mutants. The effect of copper therapy on lysyl oxidase activity in brindled (Mobr) mice,” Biochem J. 1982 Feb. 15; 202(2): 369-371. Especially preferred is a […] assay. One is described in Palamakumbura, et al. “A fluorometric assay for detection of lysyl oxidase enzyme activity in biological samples,” Anal Biochem. 2002 Jan. 15; 300(2):245-51. This method was used in the present work to assess LOX inhibition by BAPN and by anti-LOX antibody in cells in culture (using conditioned media) and in mice (using plasma), in a 96-well format.
LOX activity assay. The original method is described in Folgelgren, et al. J. Biol. Chem. 280:24690-24697 (2005). For the in vivo data, terminal bleeds were taken at the end of the experiment described above from untreated (control) mice, 2 and 3 wk BAPN mice, and antibody-treated mice. […] For the in vitro data, 50 μl of conditioned phenol-red-free medium was taken from cells incubated for 24 h under conditions of hypoxia. Samples were incubated overnight at 37° C. with different concentrations of BAPN or with purified LOX antibody at a concentration equivalent to 20 mg kg^−1 dose. Again, 0=fluorescent reading for 500 μM BAPN.

human cancer cells = assay: Cell viability; assay type: cell-based; settings: data not shown
FAK = FAK phosphorylation (phospho-FAK immunoblot); assay type: cell-based; settings: cells expressing LOX shRNA transfected with mature LOX
Source text: Acquisition of motility is required before cells can migrate and invade. Invasive cell migration is a multi-step process^17 that commences with pseudopod protrusion at the leading edge driven by actin polymerization, resulting in focal adhesion formation and the activation of integrin and focal adhesion kinase (FAK). […] LOX protein expression extended along hairlike fibers protruding from the cell surface into the collagen matrix. […] Remodeling of the actin cytoskeleton with increased formation of stress fibers and focal adhesion in MDA231 control cells particularly in hypoxia was observed, which were not seen in cells expressing LOX shRNA.
A role for fibronectin (FN) was sought, because it was strongly associated with LOX expression in the breast cancer microarray data set that was analyzed (data not shown), is reported to regulate invasion, bind to integrins and interact with LOX, and is hypoxia induced. […] FAK phosphorylation could be induced in the cells expressing LOX shRNA by transfection with mature LOX (but not catalytically dead LOX), confirming a role for LOX in FAK phosphorylation. […]
Methods were performed as previously described. […] LOX was analyzed by using a rabbit polyclonal antibody raised against a synthetic peptide of human LOX (EDTSCDYGYHRRFA (SEQ ID NO:1); Open Biosystems). […] Quantification was performed with ImageQuant software.

[1] = test system: MDA231 human breast cancer cells; assay: Pulmonary foci after i.v. MDA231 cells with daily conditioned media injections; assay type: in vivo, mice; settings: i.v. tumor cells with daily CM injections
Source text: To determine if the effect of increased circulating LOX levels on the growth of tumor cell foci at metastatic sites was independent of the initial steps of metastasis from a primary tumor (Steeg (2006) Nat. Med. 12:895-904), we intravenously injected MDA231 human breast cancer cells that expressed either LOX-targeting shRNA or a scrambled control sequence (Wt). We also provided circulating LOX by daily intraperitoneal injections of conditioned media (CM) derived from Wt or LOX shRNA cells exposed to hypoxic (H) or normoxic (N) conditions for 24 hours in vitro. […] CM from aerobic LOX shRNA cells had the lowest LOX activity (FIG. 19B).
Local secretion of LOX by Wt tumor cells could sustain growth of Wt foci in the absence of exogenous circulating LOX, although larger foci were present when circulating LOX from hypoxic Wt CM was supplied (FIG. 19F-G). Since circulating LOX levels are highest in mice prior to metastasis formation from a primary tumor (FIG. 19A), we injected CM daily for 2 weeks prior to i.v. tumor cell injection (FIG. 19B).
(§1) Conditioned media (CM) consisted of serum-free Modified Eagle's Medium cultured on MDA231 LOX shRNA or control cells incubated in normoxia (N; 21% O2) or hypoxia (H; 2% O2) for 24 h. CM was passed through a 0.22-μm filter and 300-μl were injected intraperitoneally daily into mice (Kaplan (2005), supra). […]

MDA231 cells = assay: Pulmonary metastases from orthotopic MDA231 tumors with conditioned media injections after bone marrow transplantation; assay type: in vivo, mice
Source text: We then determined whether elevated levels of circulating LOX from hypoxic tumor cells could affect BMDC recruitment and formation of the metastatic niche. We transplanted male bone marrow cells into female mice prior to orthotopically implanting Wt or LOX shRNA MDA231 cells, and used in situ hybridization with a Y-chromosome-specific probe to investigate BMDC recruitment. We allowed two weeks for primary tumor formation, and then supplemented the mice with different levels of circulating LOX for four weeks by daily intraperitoneal CM injections (FIG. 20B).
Nude (nu/nu) 6-week old female mice were lethally irradiated (950 rads) and transplanted with 10^6 bone marrow cells isolated from the tibia and femur of nude (nu/nu) male mice 48 hr later. After 4 weeks, 10^7 MDA231 human breast cancer cells expressing either an shRNA targeting LOX or a scrambled control sequence were implanted orthotopically in the mammary fat pad.
as §1, with “supra). When stated, beta-aminoproprionitrile was added to CM for an injection dose of 100 mg/kg.” for “supra).”

MMP-2 = assay: MMP gelatin zymography of RAW macrophages incubated with conditioned media; assay type: cell-based; settings: BMDCs incubated 24 h with CM from hypoxic Wt cells
Protocol: We examined changes in BMDC MMP activity induced by CM (FIG. 21C). MMP-9 activity was not affected by LOX or FN alone, but was elevated in CM supplemented with FN regardless of LOX status. This is consistent with our finding that FN has a stronger influence than LOX on BMDC migration.
Gelatin enzymography was performed to assess MMP activity as described. Protein concentrations were quantified to ensure equal loading.

## N#CCCN [BAPN, β-aminoproprionitrile]
LOX
  LOX activity levels in the blood: Reduced LOX activity levels
Human cancer cells
  cell viability: Neither treatment with BAPN nor treatment with BCS affected cell viability
FAK
  FAK phosphorylation induced by transfection with mature LOX: could be prevented
[1]
  pulmonary foci formation: diminished foci formation
MDA231 cells; 6 wk post-orthotopic implantation
  pulmonary metastases of mice bearing Wt tumors: eliminated
MDA231 cells; BAPN added to CM, injection dose 100 mg/kg
  increase in LOX shRNA tumor cell metastases in response to CM from hypoxic Wt cells: could be prevented
MMP-2
  MMP-2 activity: reduced
